Test results published in patent publication US10710988B2, “Piperazine derivative” (Astellas Pharma Inc., priority 2016, dated 2020).
Where two headings read alike, the source gives them in different places.

Key:
[1] = test system: phenylephrine-induced urethral pressure increase; assay: Effect on rat urethral pressure (phenylephrine-induced urethral pressure increase); assay type: in vivo; details: read-out: ID40
Method: The present Test Example was performed by partially modifying the technique reported as a testing system for evaluating a urethral resistance-reducing action (European Journal of Pharmacology, 679, 127-131 (2012)). Male Wistar rats (Charles River Laboratories Japan, Inc.) were anesthetized with urethane (1.2 g/kg ip), and immobilized in a supine position. The midline incision was performed in the lower abdominal portion such that the bladder was exposed. The bladder apex was incised, and from the incision site, a microchip pressure transducer catheter (3.5 Fr, Millar, Inc) was inserted and implanted into the inside of the urethra. In addition, a cannula for drug administration was implanted into the femoral vein. After the urethral pressure was stabilized, phenylephrine hydrochloride (Sigma-Aldrich Co. LLC., 30 μg/kg) was intravenously administered to induce an increase in the urethral pressure. At an interval of about 30 minutes, the above operation was repeated twice or more so as to confirm the stability of the phenylephrine hydrochloride-induced urethral pressure increasing reaction. Then, a test compound (dissolved in 20% dimethyl acetamide, 10% Cremophor (registered trademark), and 70% physiological saline) was intravenously administered, and after 5 minutes, phenylephrine hydrochloride was administered. The procedure of the administration of the test compound and the administration of phenylephrine hydrochloride was repeated at an interval of about 30 minutes, and 3 to 5 doses of the test compound was evaluated (the test compound was administered at increasing doses). The obtained data was introduced into a personal computer through PowerLab (registered trademark) (ADInstruments, Inc.) and analyzed using LabChart (registered trademark) (ADInstruments, Inc.). For the evaluation, the value (AUC value, mmHg-s) of the area under the urethral pressure for one minute before and after administration of phenylephrine hydrochloride was determined to calculate the difference (ΔAUC value) between the AUC value before the administration of phenylephrine hydrochloride and the AUC value after the administration of phenylephrine hydrochloride. The ΔAUC value obtained before administering the test compound was regarded as being 100%, and based on this, the ratio (reaction rate) of the ΔAUC value of the test compound at each dose was calculated. The dose at which the obtained reaction rate became 60% (40% as an inhibition rate) was defined as ID40, and the ID40 values of the test compounds were calculated by non-linear regression.

[2] = test system: drug-induced voiding dysfunction model rat; assay: Effect on drug-induced voiding dysfunction model rat; assay type: in vivo; details: male SD rats; atropine sulfate + midodrine hydrochloride induced voiding dysfunction; inhibition of decrease in voiding efficiency or increase of residual urine; P<0.05
Excerpt: Male Sprague Dawley (SD) rats (Japan SLC, Inc.) were anesthetized with isoflurane and a cannula was placed in the bladder, the stomach, and the jugular vein. Then, the rats were awakened in a Baellman cage (Natsume Seisakusho Co., Ltd.). After a post-operative stabilization period, physiological saline was continuously infused into the bladder by an infusion pump (Terumo Corporation, product number: TE-331 S, STC-528) to induce voiding. Infusion of the physiological saline was stopped as soon as the voiding began, and the amount of the voided urine was measured using an electronic top-loading balance installed under the Ballman cage. After voiding ended, the residual urine was collected by gravity through the cannula implanted into the bladder and weighed, and the weight was taken as the amount of the residual urine. Furthermore, the intravesical pressure was measured by a pressure transducer (Nihon Kohden Corporation, product numbers: DX-100) through the bladder cannula. The test compound or the vehicle was administered into the stomach, and atropine sulfate (Sigma-Aldrich Co. LLC., 0.01 mg/kg) as an anticholinergic drug and midodrine hydrochloride (Sigma-Aldrich Co. LLC., 0.3 mg/kg) as an a adrenergic receptor agonist were intravenously administered to induce voiding dysfunction. The voiding efficiency (=[voided amount/(voided amount+amount of residual urine)]×100) and the amount of the residual urine before and after the administration of the test compound or the vehicle were measured, and the amount changed was evaluated. The value obtained by the administration of the vehicle and the value obtained by the administration of the test compound were compared in a Dunnett's multiple comparison test with a statistically significant difference (P<0.05), and the minimum dose at which the inhibitory action on a decrease in voiding efficiency or on an increase of the amount of residual urine observed was defined as a minimum effective dose (4 rats per group).

[3] = male Wistar rats, urethane anesthesia, intravenous, dose giving 40% inhibition of phenylephrine-induced urethral pressure ΔAUC

CC(=O)N[C@@H](CC(C)(C)C)C(=O)N1C[C@H](C)N(C(=O)[C@@H]2CN(C(C)(C)C)C[C@H]2c2ccc(F)cc2F)C[C@H]1C.Cl [Example 4, N-{(2S)-1-[(2R,5S)-4-{[(3 S,4R)-1-tert-butyl-4-(2,4-difluorophenyl)pyrrolidin-3-yl]carbonyl}-2,5-dimethylpiperazin-1-yl]-4,4-dimethyl-1-oxopentan-2-yl}acetamide monohydrochloride]
ED40 [1, 3]: 11 mg/kg
MED (minimum effective dose) [2]: 0.01 mg/kg ig

CC(=O)N[C@@H](CC(C)C)C(=O)N1CCN(C(=O)[C@@H]2CN(C(C)(C)C)C[C@H]2c2ccc(Cl)cc2F)C[C@H]1C [Example 5]
ED40 ([1]; iv): 25 mg/kg
MED (minimum effective dose) [2]: 0.01 mg/kg ig

CC(=O)N[C@H](C(=O)N1CCN(C(=O)[C@@H]2CN(C(C)(C)C)C[C@H]2c2ccc(F)cc2F)[C@@H](C)C1)C1CCCCC1.Cl [Example 6, N-{(1S)-2-[(3S)-4-{[(3S,4R)-1-tert-butyl-4-(2,4-difluorophenyl)pyrrolidin-3-yl]carbonyl}-3-methylpiperazin-1-yl]-1-cyclohexyl-2-oxoethyl}acetamide monohydrochloride]
ED40 [1, 3]: 46 mg/kg
MED (minimum effective dose) [2]: 0.03 mg/kg ig

CC(=O)N[C@@H](CC(C)(C)C)C(=O)N1CCN(C(=O)[C@@H]2CN(C(C)(C)C)C[C@H]2c2ccc(F)cc2F)[C@@H](C)C1.Cl [Example 8]
ED40 [1, 3]: 15 mg/kg
MED (minimum effective dose) [2]: 0.01 mg/kg ig

CC(=O)N[C@@H](CC(C)(C)C)C(=O)N1C[C@H](C)N(C(=O)C2CN(C(C)(C)C)CC2c2ccc(F)cc2)C[C@H]1C.Cl (stereo partly shown) [Example 11]
ED40 [1, 3]: 28 mg/kg
MED (minimum effective dose) [2]: 0.03 mg/kg ig
